Assay: gradient 5% acetonitrile 3 min, to 50% in 2 min, to 85% in 15 min, held 3 min, 100 µL/min
Conditions: column: Zorbax Extend-C18 2.1 x 50 mm; eluents: water / acetonitrile, 0.1% formic acid
Method in brief: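 Values are retention times taken from adduct peaks that software picked and an analyst inspected. The pure standards were run as mixtures of ~100 molecules on HPLC linked to a quadrupole time-of-flight mass spectrometer, in positive and negative ionization mode. A Zorbax Extend-C18 column (2.1 × 50 mm, 1.8 μm) was used at 100 μL/min with water and acetonitrile, each including 0.1% formic acid.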

Row | Compound | RP-LC retention time
1 | CN1C(=O)c2cccnc2Sc2cc(C(=O)N3CCc4ccccc43)ccc21 | 789 s
2 | O=C(CN1CCOCC1)Nc1ccc(Br)cc1 | 556 s
3 | Cc1cccn2c(=O)c3cc(C(=O)NCCc4ccc(S(N)(=O)=O)cc4)n(C)c3nc12 | 757 s
4 | CCOc1ccc(-c2noc(Cc3nnc(-c4ccc(C)c(F)c4)o3)n2)cc1 | 1140 s
5 | O=C(NCCc1csc(C2CCCN(C(=O)C3CCCO3)C2)n1)C1CC1 (centres undefined) | 627 s
6 | Cc1cccc(CNC(=O)c2ncn3c2C(=O)N(C2CC2)C(C)(C(=O)NC2CCCC2)C3)c1 (centres undefined) | 784 s
7 | Cc1scc2nc(C(=O)NCc3ccc(F)cc3)nc(N(C)C)c12 | 780 s
8 | O=C(Nc1ccc2nnc(-c3ccc(C(=O)N4CCSCC4)cc3)n2c1)C1CCC1 | 885 s
9 | CCOc1ccc(NC(=O)c2[nH]c3cc(C)sc3c2CN2CCOCC2)cc1 | 1160 s
10 | CC(NC(=O)CCc1c(-c2ccc(Br)cc2)nc2ccccn12)c1ccccc1 (centres undefined) | 770 s
11 | CCc1noc(NC(C)=O)c1-c1ccc(C)c(S(=O)(=O)N2CCCc3ccccc32)c1 | 953 s
12 | CCOc1cc(C(=O)Nc2c(-c3ccc(F)cc3)nc3cc(C)ccn23)cc(OCC)c1OCC | 819 s
13 | COCCN1C(=O)CN(Cc2ccc(C)cc2)C(=O)C1c1cccs1 (centres undefined) | 849 s
14 | COc1ccccc1-c1nc(Cn2nnc(-c3nc(-c4ccc5c(c4)OCO5)no3)c2C)c(C)o1 | 700 s
15 | Cc1[nH]c2ccccc2c1C(=O)C(=O)NCCn1ccc2ccccc21 | 844 s
16 | Cc1cc(Cl)ccc1NC(=O)c1cccn1-c1cccnc1 | 798 s
17 | O=C(Nc1sc2c(c1CN1CCN(c3ccccn3)CC1)CCCC2)c1ccco1 | 671 s
18 | Cc1ccnc(N2CCCC(C(=O)NCCSCc3ccco3)C2)n1 (centres undefined) | 709 s
19 | Cc1cc(-c2nnc(NC(=O)CS(=O)(=O)c3ccc(Cl)cc3)o2)nn1C | 677 s
20 | COc1ccc(-n2cc(C(=O)OCc3cccnc3)c3ccccc3c2=O)cc1 | 745 s
21 | CCOC(=O)C1CCN(c2cc(-n3nc(C)cc3C)ncn2)CC1 | 1000 s
22 | CCOc1ccccc1CNC(=O)c1cc(NC(C)=O)cc2nc(C)ccc12 | 653 s
23 | Cc1sc2cc(C(=O)N(C)C)[nH]c2c1CN1CCCCC1 | 606 s

Row | Compound | RP-LC retention time
24 | O=C(C1CCCN(S(=O)(=O)N2CCCCC2)C1)N1CCN(Cc2ccc3c(c2)OCO3)CC1 (centres undefined) | 679 s
25 | Cc1csc(-c2ccc(N3CCN(C(=O)c4cc(Cl)ccc4F)CC3)nc2)n1 | 943 s
26 | O=C(Cc1nnc(-c2cnccn2)o1)NCc1ccc(Cl)cc1 | 698 s
27 | CCN1c2ccccc2C(=O)NC12CCN(C(=O)Nc1cccc(OC)c1)CC2 | 703 s
28 | O=C(Cn1ccc2ccc(N3CCOCC3)nc21)N1CCN(c2ccccc2Cl)CC1 | 1060 s
29 | Cc1ccc(CNC(=O)c2cccc3c2CCN3C(=O)c2ccc(F)cc2)o1 | 889 s
30 | O=C(NCCc1nc2ccccc2n1CC(=O)N1CCCC1)c1cccnc1 | 566 s
31 | COc1cc(-c2noc(Cn3ncn4nc(-c5cccs5)cc4c3=O)n2)cc(OC)c1OC | 983 s
32 | CCCn1nccc1-c1csc(S(=O)(=O)N2CCCC2)c1 | 912 s
33 | CCN1CCN(c2cc(C)c3cc(NC(=S)N4CCC(Cc5ccccc5)CC4)ccc3n2)CC1 | 699 s
34 | CCOc1ccc(C(=O)N2CCC3(C2)C(=O)N(C)c2ccc(OC)cc23)cc1 (centres undefined) | 788 s
35 | O=S(=O)(Cc1ccccc1)N1CCC(OCCOCc2ccccc2)CC1 | 1040 s
36 | CCCC(=O)N1CCc2c(c(C(=O)N3CCCC(C(=O)Nc4ccccc4C)C3)nn2C)C1 (centres undefined) | 759 s
37 | Cc1cc2nn(CC(=O)Nc3ccc(Cl)cc3)c(=O)n2c(N2CCCC2)n1 | 802 s
38 | O=C(NCc1ccccc1Cl)c1csc(C(=O)NC2CCCC2)n1 | 931 s
39 | O=C(COc1cccc2ccc(N3CCOCC3)nc12)NCC1CCCO1 (centres undefined) | 564 s
40 | CCCn1cc(CCNC(=O)Nc2ccccc2Cl)c2cccnc21 | 812 s
41 | Cc1cc(=O)n(CC(=O)NCc2ccccc2Cl)c(N)n1 | 603 s
42 | Cc1c(-c2noc(C(=O)N3CCN(Cc4ccc5c(c4)OCO5)CC3)n2)oc2c(C)cccc12 | 837 s
43 | COc1ccc(CN2C=C(C(=O)OCc3nc(C4CC4)no3)C(C)=NS2(=O)=O)cc1 | 972 s
44 | CCC(=O)NCc1nc2c(n1C)CN(S(=O)(=O)c1ccc(F)c(F)c1)CC2 | 571 s
45 | Cc1oc(C2CCN(S(=O)(=O)CCc3ccccc3)CC2)nc1C(=O)N(C)C | 816 s
46 | CC1CCCN(c2ccn3c(=O)n(CC(=O)NCc4ccc(F)cc4)nc3n2)C1 (centres undefined) | 804 s

More lines, now with the values ahead:

Row | RP-LC retention time | Compound
47 | 636 s | CS(=O)(=O)N1CCC(C(=O)Nc2nnc(-c3ccc(F)cc3)o2)CC1
48 | 908 s | Cc1ccccc1Cc1nc(-c2ccnc(N3CCOCC3)c2)no1
49 | 658 s | COC(=O)c1cnc2nc(C)ccc2c1NCc1ccccc1
50 | 736 s | COc1cc(NC(=O)Cn2nc3cc(-c4ccccc4)nc(C)n3c2=O)cc(OC)c1
51 | 782 s | COc1ccc(NC(=O)c2cn(-c3cc(N(C)C)ncn3)cn2)cc1F
52 | 796 s | COc1ccc(CNC(=O)C2c3ccccc3C(=O)N3CCc4ccccc4C23)c(OC)c1 (centres undefined)
53 | 1030 s | CCNS(=O)(=O)c1cccnc1Nc1ccc(Cl)cc1
54 | 730 s | O=C(c1ccsc1)N1CCN(c2cc(-c3ccccc3)[nH]n2)CC1
55 | 1080 s | Clc1ccccc1-c1nnc(-c2ccccc2Cl)o1
56 | 746 s | COCc1noc([C@@H]2CC(F)(F)CN2C(=O)C2CCC2)n1
57 | 702 s | CCn1cc(-c2ccc(Cl)cc2)cc1C(=O)NCCN(C)C
58 | 599 s | CNC(=O)[C@@H]1CN(C(=O)Cc2c(C)noc2C)C[C@H]1c1nc(C)no1
59 | 1140 s | COc1ccccc1N1CCN(c2ncccc2-c2nc(-c3ccccc3)no2)CC1
60 | 741 s | O=C(Nc1ccc(Cl)cc1F)N1CCC(N2CC(F)(F)C[C@H]2COCC2CC2)CC1
61 | 754 s | COc1ccc(C2(C(=O)N3CCN(S(=O)(=O)c4c(C)nn(C)c4C)CC3)CC2)cc1
62 | 1120 s | CCn1cc(-c2nc(C)c(C(=O)Nc3cc(F)cc(F)c3)s2)c2cccnc21
63 | 812 s | O=C(NCc1ccc(Cl)cc1)C1CCCN(c2ncnc3c2nc2n3CCCCC2)C1 (centres undefined)
64 | 721 s | CC(C)NC(=O)c1ccc(-c2nc3cc(NS(=O)(=O)c4ccc(F)c(F)c4)ccc3n2C)cc1
65 | 673 s | CNCc1ccc(-c2cccc(C(F)(F)F)c2)o1
66 | 612 s | CC(C)c1nccn1C1CN(C(=O)C(C)c2ccccc2)C1 (centres undefined)
67 | 1100 s | Cc1oc(-c2ccccc2)nc1Cn1ccn2nc(-c3ccc(F)cc3)cc2c1=O
68 | 708 s | COc1ccc(NC(=O)COc2nc(C)nc3ccccc23)c(OC)c1

Row | RP-LC retention time | Compound
69 | 1140 s | COc1ccc(NS(=O)(=O)c2cc(-c3cc(C(F)(F)F)on3)sc2C)cc1Cl
70 | 626 s | Cc1nc2ccn(Cc3cccnc3)c(=O)c2cc1C(=O)NCCc1c[nH]c2ccccc12
71 | 702 s | CNC(=O)Nc1cccn2nc(-c3ccccc3)nc12
72 | 1020 s | Cc1ccc(NS(=O)(=O)c2ccc(-c3c(C)noc3C)cc2)c(Cl)c1
73 | 709 s | CCOc1ccc(S(=O)(=O)N2CCCC(C(=O)NCCOC)C2)cc1 (centres undefined)
74 | 690 s | CSc1ccc(CCNC(=O)CCCN2C(=O)CCn3nc(C)cc32)cc1
75 | 641 s | Cc1cc(C(=O)NCC23CCCC=C2NC(=O)CC3)nn1C (centres undefined)
76 | 936 s | Fc1ccc(-c2nc3cnccn3c2Nc2ccc(Cl)cc2)cc1
77 | 569 s | COCCN(CCNC(=O)C1Cn2cccc2C(=O)N1C)Cc1ccco1 (centres undefined)
78 | 726 s | COc1cc(NC(=O)CSc2nc3nc(C)cc(C)n3n2)cc(OC)c1
79 | 598 s | Cc1nn(C)c(C)c1S(=O)(=O)N1CCC(Cc2nc(-c3cccnc3)n[nH]2)C1 (centres undefined)
80 | 1130 s | CCC(=O)Nc1ccc(-c2nc(-c3ccc(Cl)cc3)no2)cc1
81 | 1320 s | CCCN(CCC)c1nc2cc(C(=O)OC)ccc2c(=O)n1-c1ccccc1
82 | 585 s | CSc1ncccc1C(=O)NCc1ccc2c(c1)ncn2C(C)C
83 | 819 s | Cc1ccc(CN2C(=O)NC3(CCN(C(=O)c4ccc5c(c4)OCO5)CC3)C2=O)cc1
84 | 704 s | Cc1cc(-c2csc(S(=O)(=O)NCCCN3CCN(c4ccccc4F)CC3)c2)on1
85 | 822 s | Cn1c(=O)n([C@H]2CCCN(S(=O)(=O)c3cccc4nsnc34)C2)c2ncccc21
86 | 705 s | Cc1ccc(C)c(NC(=O)NCC2CCOCC2)c1
87 | 900 s | Cc1cc(C)cc(NC(=O)C2CCN(S(C)(=O)=O)c3cc(C)ccc3O2)c1 (centres undefined)
88 | 1020 s | CC(C)(Oc1ccc(Cl)cc1)C(=O)N1CCN(C(=O)C2CC2c2cccs2)CC1 (centres undefined)
89 | 1050 s | Cc1ccc(-c2ncc(C(=O)Nc3cccc(Br)c3)c(-c3ccncc3)n2)cc1

Reference: the METLIN SMRT retention time set (Domingo-Almenara et al. 2019)
